Here are results for 25 compounds from patent publication US20240124396A1, “AMINO LIPID COMPOUND, PREPARATION METHOD THEREFOR, AND USE THEREOF” (SHENZHEN SHENXIN BIOTECHNOLOGY CO., LTD., priority 2021, published 2024).

For the first assay, the system named is Luciferase mRNA (Fluc mRNA). In words: Luciferase mRNA in vivo delivery performance of lipid nanoparticles prepared from amino lipid compounds. Also on record: species or system BALB/c mice. The following applies: batch 1; LNP with Fluc mRNA, 0.5 mg/kg intramuscular injection, mice, total fluorescence intensity imaged 6 hours after dosing. As for the experimental part: Evaluation of Luciferase mRNA In Vivo Delivery Performance of Lipid Nanoparticles Prepared from Amino Lipid Compounds • Preparation process: The delivery vector in the present invention, DSPC, cholesterol, and PEG2000-DMG were mixed and dissolved in absolute ethanol in a molar ratio of 50:10:38.5:1.5. Luciferase mRNA (Fluc mRNA) was dissolved in a sodium acetate solution (50 mM, pH=4.0). Two microinjection pumps were used, and the ratio of ethanol solution to sodium acetate solution (50 mM, pH=4.0) was controlled to be 1:3. A crude solution of lipid nanoparticles was prepared in a microflow channel chip, then dialyzed for 6 hours with 1×PBS (phosphate buffer solution) at a controlled temperature of 4° C. by using a dialysis cassette (Fisher, MWCO 20,000), and filtered with a 0.22 μm microporous filter membrane before use. The mass ratio of the amino lipid compound to luciferase mRNA (Fluc mRNA) was about 10:1. • Animal preparation: 6-week-old male BALB/c mice with body weights of about 20 g were selected, and fed in an SPF-grade feeding room. Animal experiments were strictly carried out according to the guidelines of the national health institution and the requirements of animal ethics. • In vivo delivery: 3 mice were randomly selected per group and injected with lipid nanoparticles at a dose of 0.5 mg/kg by intramuscular injection. After 6 hours, 200 μL of 10 mg/mL potassium […] was injected into each mouse via the tail vein, and after 10 minutes, the mice were placed under an in vivo imaging system (IVIS-200, Xenogen), and the total fluorescence intensity of each mouse was observed and recorded by photographing.
Table 1 provides the expression intensities of Fluc mRNA delivered by the intramuscular injection administration of the representative amino lipid compounds with DLin-MC3 as the control (two batches of tests in total).
As to `CCCCCCCCCCCCCCCCN1C(=O)CC[C@H](C(=O)OCCN2CCOCC2)[C@H]1CCCCCCCCCCC` (racemic) [Compound 3], the Fluorescence intensity was found to be 5.1E+06. With `CCCCCCCCCCCCCCCCN1C(=O)CC[C@H](C(=O)OCCCN2CCN(C)CC2)[C@H]1CCCCCCCCC` (racemic) [Compound 4], the Fluorescence intensity is recorded as 2.8E+06.

`CCCCCCCCCCCCCCC[C@@H]1[C@@H](C(=O)OCCN2CCCCC2)CCC(=O)N1CCCCCCCCCCCCC` (racemic) [Compound 6] registered a Fluorescence intensity of 3.1E+05. As for `CCCCCCCCCCCCCCCCC[C@@H]1[C@@H](C(=O)OCC2CCN(C)CC2)CCC(=O)N1CCCCCCCCCCCC` (racemic) [Compound 7], the Fluorescence intensity is reported as 6.1E+05. Consider `CCCCCCCCCCCCCCCCN1C(=O)C[C@H](C(=O)NCCN2CCCCC2)[C@H]1CCCCCCCC` (racemic) [Compound 9], for which the Fluorescence intensity was 6.1E+06.

`CCCCCCCCCCCCCCCCC[C@@H]1[C@@H](C(=O)NCCN2CCN(C)CC2)CC(=O)N1CCCCCC` (racemic) [Compound 10] registered a Fluorescence intensity of 8.1E+05.

Take `CCCCCCCC/C=C\CCCCCCCCN1C(=O)C[C@H](C(=O)NCCCN(C)C)[C@H]1CCCCCCCCCCC` (racemic) [Compound 11]: the Fluorescence intensity was determined as 2.1E+06. In turn, `CCCCCCCC/C=C\CCCCCCC[C@@H]1[C@@H](C(=O)OCCN2CCCC2)CC(=O)N1CCCCCCCCCCCCCCCC` (racemic) [Compound 15] yielded a Fluorescence intensity of 2.8E+07. In the case of `CCCCCCCC/C=C\CCCCCCC[C@@H]1[C@@H](C(=O)OCCN2CCCCC2)CC(=O)N1CCCCCCCCCCCC` (racemic) [Compound 16], the Fluorescence intensity is recorded as 1.4E+07. Turning to `CCCCC/C=C\C/C=C\CCCCCCC[C@@H]1[C@@H](C(=O)OCCCN(C)C)CC(=O)N1CCCCCCCCCCCCC` (racemic) [Compound 19], the Fluorescence intensity amounted to 2.1E+06. Still for that read-out and setting: the result for `CCCCC/C=C\C/C=C\CCCCCCC[C@@H]1[C@@H](C(=O)OCCN2CCCC2)CC(=O)N1CCCCCCCCCCCCCCCC` (racemic) [Compound 20] reads 5.2E+06.

In turn, `CCCCCCCCCCCCN1C(=O)C[C@H](C(=O)NCCN(C)C)[C@H]1CCCCCCCCCCC` (racemic) [Compound N12A12C4D1] registered a Fluorescence intensity of 2.9E+07. `CCCCCCCCCCCCN1C(=O)C[C@H](C(=O)OCCCN(C)C)[C@H]1CCCCCCCCCCC` (racemic) [Compound N12A12C4O2] displayed a Fluorescence intensity of 2.8E+06.

The compound `CCCCC/C=C\C/C=C\CCCCCCC[C@@H]1[C@@H](C(=O)OCCN2CCCCC2)CC(=O)N1CCCCCCCCCCCC` (racemic) [Compound N12A20C4O10] displayed a Fluorescence intensity of 2.7E+06.

Regarding `CCCCCCCCCCCCCCCCN1C(=O)CC[C@H](C(=O)OCCN2CCCCC2)[C@H]1CCCCCCCCC` (racemic) [Compound N16A10C5O10], the Fluorescence intensity came to 4.5E+06. The same measure, in the same setting: the value for `CCCCC/C=C\C/C=C\CCCCCCCCC(CCCCCCCC/C=C\C/C=C\CCCCC)OC(=O)CCCN(C)C` [Dlin-MC3, reference compound] was 7.7E+06.

The same assay, now with this note: batch 2; LNP with Fluc mRNA, 0.5 mg/kg intramuscular injection, mice, total fluorescence intensity imaged 6 hours after dosing.
In turn, `CCCCCCCC/C=C\CCCCCCCCN1C(=O)C[C@H](C(=O)OCCN2CCCCC2)[C@H]1CCCCCCCCC` (racemic) [Lipid 1] yielded a Fluorescence intensity of 8.8E+06. On to `CCCCCCCC/C=C\CCCCCCCCN1C(=O)C[C@H](C(=O)OCCCN(C)C)[C@H]1CCCCCCCCCCCCCC` (racemic) [Lipid 2], for which the Fluorescence intensity amounted to 4.9E+06. Regarding `CCCCCCCC/C=C\CCCCCCCCN1C(=O)C[C@H](C(=O)OCCN2CCCC2)[C@H]1CCCCCCCCCCCCCCCCC` (racemic) [Lipid 3], the Fluorescence intensity came out at 2.9E+07. The compound `CCCCC/C=C\C/C=C\CCCCCCCCN1C(=O)C[C@H](C(=O)OCCN2CCCC2)[C@H]1CCCCCCCCCCCCCC` (racemic) [Lipid 5] displayed a Fluorescence intensity of 7.6E+06. Still for that read-out and setting: the result for `CCCCC/C=C\C/C=C\CCCCCCCCN1C(=O)C[C@H](C(=O)OCCCN2CCN(C)CC2)[C@H]1CCCCCCCCCCCC` (racemic) [Lipid 6] reads 3.7E+06; that for `CCCCCCCC/C=C\CCCCCCC[C@@H]1[C@@H](C(=O)OCCN2CCCC2)CC(=O)N1CCCCCCCCCCCCCCCC` (racemic) [Lipid 7], 4.8E+07; that for `CCCCCCCC/C=C\CCCCCCC[C@@H]1[C@@H](C(=O)OCCN2CCCCC2)CC(=O)N1CCCCCCCCCCCC` (racemic) [Lipid 8], 2.3E+07. Compound `CCCCC/C=C\C/C=C\CCCCCCCC[C@@H]1[C@@H](C(=O)OCCN2CCCCC2)CC(=O)N1CCCCCCCCCCCC` (racemic) [Lipid 9] had a Fluorescence intensity of 4.2E+06. In the case of `CCCCC/C=C\C/C=C\CCCCCCCC[C@@H]1[C@@H](C(=O)OCC2CCN(C)CC2)CC(=O)N1CCCCCCCCCCCCC` (racemic) [Lipid 10], the Fluorescence intensity was 3.6E+06.

On to `CCCCC/C=C\C/C=C\CCCCCCCCC(CCCCCCCC/C=C\C/C=C\CCCCC)OC(=O)CCCN(C)C` [Dlin-MC3, reference compound], for which the Fluorescence intensity was found to be 6.9E+06.

A further assay concerns Ovalbumin mRNA (OVA mRNA). Kind of assay: Ovalbumin mRNA in vivo delivery and immunization performance of lipid nanoparticles (ELISA IgG titer). The arrangement: species or system BALB/c mice. The following applies: LNP with OVA mRNA, 0.5 mg/kg subcutaneous injection Day 0 and Day 7, blood on the 21st day, FIG. 1 and FIG. 2. The method, then:
Evaluation of Ovalbumin mRNA In Vivo Delivery and Immunization Performance of Lipid Nanoparticles (Delivery Vector) Prepared from Amino Lipid Compounds • Preparation process: The amino lipid compound described in the present invention, DSPC, cholesterol, and PEG2000-DMG were mixed and dissolved in absolute ethanol in a molar ratio of 50:10:38.5:1.5. Ovalbumin mRNA (OVA mRNA) was dissolved in a sodium acetate solution (50 mM, pH=4.0). Two microinjection pumps were used, and the ratio of ethanol solution to sodium acetate solution (50 mM, pH=4.0) was controlled to be 1:3. A crude solution of lipid nanoparticles was prepared in a microflow channel chip, then dialyzed for 6 hours with 1×PBS at a controlled temperature of 4° C. by using a dialysis cassette (Fisher, MWCO 20,000), and filtered with a 0.22 μm microporous filter membrane before use. The mass ratio of the amino lipid compound to ovalbumin mRNA (OVA mRNA) was about 10:1. • Animal preparation: 6-week-old male BALB/c mice with body weights of about 20 g were selected, and fed in an SPF-grade feeding room. Animal experiments were strictly carried out according to the guidelines of the national health institution and the requirements of animal ethics. • In vivo delivery: 3 mice were randomly selected per group and injected with lipid nanoparticles at a dose of 0.5 mg/kg by subcutaneous injection (Day 0). After 7 days, the same amount was used for another boost (Day 7). Tail vein blood was taken on the 21st day for the serological analysis. DLin-MC3 was used as the control. • Enzyme-linked immunosorbent assay (ELISA): a flat-bottomed 96-well plate (Nunc) was pre-coated with a concentration of OVA protein of 0.5 μg protein per well in 50 mM carbonate buffer (pH 9.6), and was allowed to stay overnight at 4° C., and then blocked with 5% glycine. Anti-serums, proteins obtained from immune animals, were diluted from 10^2 to 10^6 with PBS-0.05% Tween (PBS-T) at pH 7.4, added to the wells and incubated at room temperature, and placed at 37° C. for 1 hour. Horseradish peroxidase (HRP) coupled goat anti-mouse IgG was used for labeling in PBS-T-1% BSA at a dilution rate of 1:10,000. After the addition of the HRP substrate, the optical density was determined at a wavelength, and the absorbance at 450 nm was measured in an ELISA microplate reader (Bio-Rad).
It will be appreciated that modifications and variations are possible to those skilled in the art in light of the above teachings, and it is intended that the present invention cover all such modifications and variations as fall within the scope of the appended claims.
A general note: An ELISA detects its analyte on a solid surface through an enzyme-linked reagent.
In the case of `CCCCCCCCCCCCN1C(=O)C[C@H](C(=O)NCCN(C)C)[C@H]1CCCCCCCCCCC` (racemic) [Compound N12A12C4D1], the “IgG antibody titers compared with the DLin-MC3 control group” value is “significantly superior”. As for `CCCCCCCCCCCCN1C(=O)C[C@H](C(=O)OCCCN(C)C)[C@H]1CCCCCCCCCCC` (racemic) [Compound N12A12C4O2], the “IgG antibody titers compared with the DLin-MC3 control group” value is “comparable”. On to `CCCCC/C=C\C/C=C\CCCCCCC[C@@H]1[C@@H](C(=O)OCCN2CCCCC2)CC(=O)N1CCCCCCCCCCCC` (racemic) [Compound N12A20C4O10], for which the “IgG antibody titers compared with the DLin-MC3 control group” value is “significantly superior”.

For `CCCCCCCCCCCCCCCCN1C(=O)CC[C@H](C(=O)OCCN2CCCCC2)[C@H]1CCCCCCCCC` (racemic) [Compound N16A10C5O10], the “IgG antibody titers compared with the DLin-MC3 control group” value is recorded as “significantly superior”.
